Results published in patent publication US8987502B2, “Oleanolic acid amidate derivatives, preparation methods and uses thereof” (Hangzhou Bensheng Pharmaceutical Co., Ltd., priority 2011, dated 2015).
Converted amounts (≈) assume the structure as drawn.

What was measured:
[1] = test system: U87 MG; assay: MTT solid tumor cell proliferation inhibition, U87 MG; type: cell-based, human; settings: Homo sapiens, U-87 MG, U87 MG, 72 h
Description: (§1) Human solid tumor cell lines: Hep-2 (laryngeal carcinoma), A549 (human lung cancer), CaES-17 (esophageal cancer cell), PC-3 (prostate cancer), CNE (nasopharyngeal carcinoma cell), and SK-OV-3 (ovarian cancer cell), all of which are purchased from China Center For Type Culture Collection; RKO (human colon adenocarcinoma cell), MGC 803 (human gastric cancer cell), MG63 (osteosarcoma) and U87 MG (malignant glioma cell), all of which are purchased from Fuxiang Bio-tech Co. Ltd., Shanghai, China; PANC-1 (pancreatic cancer), Hep G2 (human liver cancer cell), Becap37 (human breast cancer cell), and Hela (human cervical cancer cell), all of which are donated by Cancer Research Institute of Zhejiang University, China.
(§2) Obtaining 4000 well-growing human solid tumor cells and inoculating them into wells of a 96-well cell culture plate. The culture medium is DMEM High Glucose cell culture medium containing 10% fetal bovine serum. The plate is placed in a carbon dioxide cell incubator (5% CO2) at 37° C. for 24 hours for incubation. After being added with the amidated oleanolic acid derivatives of different concentrations and mixed uniformly, the plate is placed in a carbon dioxide cell incubator (5% CO2) at 37° C. for 72 hours for incubation. Then the relative number of the living cells is determined by the MTT method. In this experiment, the cell proliferation inhibition rate in control group (not treated with any compound) is set as 0%.

[2] = test system: NB4; assay: MTT leukemia cell proliferation inhibition, NB4; type: cell-based; settings: Homo sapiens, NB-4
Excerpt: (§3) Leukemia cell lines: leukemia cell lines: K562/adr (drug-resistant, chronic myeloid leukemia, CML), NB4 (acute promyelocytic leukemia, AML), Kasumi-1 (acute myeloid leukemia M2 type, AML-M2), Jurkat (acute lymphoblastic leukemia, ALL), all of which are donated by Cancer Research Institute of Zhejiang University, China; and H9 (acute lymphoblastic leukemia, ALL), which is purchased from China Center for Type Culture Collection (CCTCC).
(§4) Reagents: The standard sample of oleanolic acid (OA) is purchased from Hua Kang Pharmaceutical Raw Material Factory, Shifang City, Sichuan, China; and the amidated oleanolic acid derivatives are prepared according to the present invention.
(§5) Obtaining 6000 well-growing leukemia cells and inoculating them into wells of a 96-well cell culture plate. The culture medium is the 1640 cell culture medium containing 10% fetal bovine serum. After adding the amidated oleanolic acid derivatives of different concentrations and mixing uniformly, placing the plate in a carbon dioxide cell incubator (5% CO2) at 37° C. and incubated for 72 hours. Then the relative number of viable cells is determined by the MTT method. In this experiment, the cell proliferation inhibition rate in control group (not treated with any compound) is set as 0%.

[3] = test system: CNE; assay: MTT solid tumor cell proliferation inhibition, CNE; type: cell-based, human
Description: as §1, §2

[4] = test system: CaES-17; assay: MTT solid tumor cell proliferation inhibition, CaES-17; type: cell-based, human; settings: Homo sapiens, CaEs17
Description: as §1, §2

[5] = test system: Hela; assay: MTT solid tumor cell proliferation inhibition, Hela; type: cell-based, human
Description: as §1, §2

[6] = test system: MGC803; assay: MTT solid tumor cell proliferation inhibition, MGC803; type: cell-based, human
Description: as §1, §2

[7] = test system: H9; assay: MTT leukemia cell proliferation inhibition, H9; type: cell-based, human
Excerpt: as §3, §4, §5

[8] = test system: Hep-2; assay: MTT solid tumor cell proliferation inhibition, Hep-2; type: cell-based, human; settings: Homo sapiens
Description: as §1, §2

[9] = test system: Kasumi-1; assay: MTT leukemia cell proliferation inhibition, Kasumi-1; type: cell-based; settings: Homo sapiens
Excerpt: as §3, §4, §5

[10] = test system: RPMI8226; assay: MTT multiple myeloma cell proliferation inhibition, RPMI8226; type: cell-based; settings: Homo sapiens, RPMI-8226
Description: Multiple myeloma cell lines: RPMI8226 (multiple myeloma), purchased from Fuxiang Bio-tech Co. Ltd., Shanghai, China.
as §5

[11] = test system: Hep G2; assay: MTT solid tumor cell proliferation inhibition, Hep G2; type: cell-based; settings: Homo sapiens, HepG2
Description: as §1, §2

[12] = test system: SK-OV-3; assay: MTT solid tumor cell proliferation inhibition, SK-OV-3; type: cell-based, human
Description: as §1, §2

[13] = test system: A549; assay: MTT solid tumor cell proliferation inhibition, A549; type: cell-based, human; settings: Homo sapiens
Description: as §1, §2

[14] = test system: MG 63; assay: MTT solid tumor cell proliferation inhibition, MG 63; type: cell-based, human
Description: as §1, §2

[15] = test system: K562/adr; assay: MTT leukemia cell proliferation inhibition, K562/adr; type: cell-based; settings: Homo sapiens, 72 h
Excerpt: as §3, §4, §5

[16] = test system: Jurkat; assay: MTT leukemia cell proliferation inhibition, Jurkat; type: cell-based; settings: Homo sapiens, 72 h
Excerpt: as §3, §4, §5

[17] = test system: Becap37; assay: MTT solid tumor cell proliferation inhibition, Becap37; type: cell-based; settings: Homo sapiens
Description: as §1, §2

[18] = test system: RKO; assay: MTT solid tumor cell proliferation inhibition, RKO; type: cell-based; settings: Homo sapiens, 72 h
Description: as §1, §2

[19] = test system: PANC-1; assay: MTT solid tumor cell proliferation inhibition, PANC-1; type: cell-based, human
Description: as §1, §2

[20] = test system: PC-3; assay: MTT solid tumor cell proliferation inhibition, PC-3; type: cell-based, human; settings: Homo sapiens
Description: as §1, §2

[21] = 16 μg/mL compound, read-out: IR (inhibition rate)

IC50 ([1]; MTT): > 16 µg/mL
IC50 ([2]; NB4, 72 h, MTT): 11.2 µg/mL (≈ 19.7 µM)
IC50 ([3]; Homo sapiens, CNE, 72 h, MTT): 14 µg/mL (≈ 24.7 µM)
IC50 ([4]; CaES-17, 72 h, MTT): > 16 µg/mL
IC50 ([5]; Homo sapiens, Hela, 72 h, MTT): 9.43 µg/mL (≈ 16.6 µM)
IC50 ([6]; Homo sapiens, MGC-803, MGC803, 72 h, MTT): 13.6 µg/mL (≈ 23.9 µM)
IC50 ([7]; Homo sapiens, H9, 72 h, MTT): 10.7 µg/mL (≈ 18.9 µM)
IC50 ([8]; Hep-2, 72 h, MTT): > 16 µg/mL
IC50 ([9]; Kasumi-1, 72 h, MTT): > 16 µg/mL
IC50 ([10]; RPMI8226, 72 h, MTT): 9.2 µg/mL (≈ 16.2 µM)
IC50 ([11]; Hep G2, 72 h, MTT): 18.5 µg/mL (≈ 32.6 µM)
IC50 ([12]; Homo sapiens, SK-OV-3, 72 h, MTT): 10.1 µg/mL (≈ 17.8 µM)
IC50 ([13]; A549, 72 h, MTT): > 16 µg/mL
IC50 ([14]; Homo sapiens, MG 63, 72 h, MTT): 13.8 µg/mL (≈ 24.3 µM)
IC50 ([15]; MTT): 8.53 µg/mL (≈ 15 µM)
IC50 ([16]; MTT): 15.3 µg/mL (≈ 27 µM)
IC50 ([17]; Becap37, 72 h, MTT): > 16 µg/mL
IC50 ([18]; MTT): 14.7 µg/mL (≈ 26 µM)
IC50 ([19]; Homo sapiens, PANC-1, 72 h, MTT): 14.7 µg/mL (≈ 25.9 µM)
IC50 ([20]; PC-3, 72 h, MTT): 18.3 µg/mL (≈ 32.2 µM)
Compound: CC1(C)CC[C@]2(NC(=O)c3cccnc3Cl)CC[C@]3(C)C(=CC[C@@H]4[C@@]5(C)CC[C@H](O)C(C)(C)[C@@H]5CC[C@]43C)[C@@H]2C1 [BS-OA-096]
inhibition at 16 µg/mL [1, 21]: 38.5%
inhibition at 16 µg/mL ([2]; NB4, 16 μg/mL compound, 72 h, read-out: IR (inhibition rate)): 100%
improvement of inhibition rate as compared with oleanolic acid ([3]; CNE cells): ~2 fold
inhibition at 16 µg/mL ([3]; Homo sapiens, CNE, 16 μg/mL compound, 72 h, read-out: IR (inhibition rate)): 63.9%
inhibition at 16 µg/mL ([4]; CaES-17, 16 μg/mL compound, 72 h, read-out: IR (inhibition rate)): 39.8%
improvement of inhibition rate as compared with oleanolic acid ([5]; Hela cells): ~4 fold
inhibition at 16 µg/mL ([5]; Homo sapiens, Hela, 16 μg/mL compound, 72 h, read-out: IR (inhibition rate)): 88.9%
inhibition at 16 µg/mL ([6]; Homo sapiens, MGC-803, MGC803, 16 μg/mL compound, 72 h, read-out: IR (inhibition rate)): 70%
improvement of inhibition rate as compared with oleanolic acid ([6]; MGC803 cells): ~3 fold
improvement of cell inhibition rate as compared with oleanolic acid ([7]; H9 cells): ~4 fold
inhibition at 16 µg/mL ([7]; Homo sapiens, H9, 16 μg/mL compound, 72 h, read-out: IR (inhibition rate)): 84%
inhibition at 16 µg/mL ([8]; Hep-2, 16 μg/mL compound, 72 h, read-out: IR (inhibition rate)): 20.6%
inhibition at 16 µg/mL ([9]; Kasumi-1, 16 μg/mL compound, 72 h, read-out: IR (inhibition rate)): 33.6%
inhibition at 16 µg/mL ([10]; RPMI8226, 16 μg/mL compound, 72 h, read-out: IR (inhibition rate)): 96.9%
inhibition at 16 µg/mL ([11]; Hep G2, 16 μg/mL compound, 72 h, read-out: IR (inhibition rate)): 40.1%
inhibition at 16 µg/mL ([12]; Homo sapiens, SK-OV-3, 16 μg/mL compound, 72 h, read-out: IR (inhibition rate)): 97%
improvement of cell inhibition rate as compared with oleanolic acid ([12]; SKOV-3 cells): > 12 fold
inhibition at 16 µg/mL ([13]; A549, 16 μg/mL compound, 72 h, read-out: IR (inhibition rate)): 18.7%
IR (inhibition rate) ([14]; MG 63, 16 μg/mL compound, 72 h): 78.1%
inhibition at 16 µg/mL [15, 21]: 81.9%
inhibition at 16 µg/mL [16, 21]: 55.3%
inhibition at 16 µg/mL ([17]; Becap37, 16 μg/mL compound, 72 h, read-out: IR (inhibition rate)): 39.3%
inhibition at 16 µg/mL [18, 21]: 59.4%
inhibition at 16 µg/mL ([19]; Homo sapiens, PANC-1, 16 μg/mL compound, 72 h, read-out: IR (inhibition rate)): 59.1%
improvement of inhibition rate as compared with oleanolic acid ([19]; PANC-1 cells): ~7 fold
inhibition at 16 µg/mL ([20]; PC-3, 16 μg/mL compound, 72 h, read-out: IR (inhibition rate)): 48.1%
